# Experimental data published in patent US8097581B2, “Anti-wrinkle cosmetic composition” (Grant Industries Inc., priority 2007, dated 2012).
# Experiments:
# [1] = system: human dermal fibroblast cultures; assay: Stimulation of mitochondrial metabolic activity (MTT method); assay type: cell-based; settings: 10 ng/ml; positive control
# Excerpt: In order to maintain youthful appearance, skin needs to constantly replace and regenerate its damaged components. This is predominantly the role of dermal fibroblasts. How well this job is done depends on the metabolic vigor of these cells as damaged or dormant fibroblasts will not be able to actively produce the replacement parts for the skin. This is why the stimulation of their metabolic activity is viewed as beneficial to the skin, not unlike the stimulation of metabolic activity is beneficial to the muscle. We tested the effect of RD1071 on the metabolic activity of mitochondria of human dermal fibroblast cultures using MTT method (Berridge et al., 1993). Mitochondria are cellular powerhouses producing energy (ATP) for the entire cell. […] Thus, example 1 (RD1071) increases cellular metabolism in a dose-dependant manner. The positive control in this experiment is use of basic fibroblast growth factor, bFGF at 10 ng/ml concentration.
# [2] = system: fibroblast cultures; assay: Total protein production stimulation (method of Skehan et al.); assay type: cell-based, human; settings: 10 ng/ml; positive control
# Experimental: The stimulation of metabolic activity by RD1071 also translated into an increase of total protein content in fibroblast cultures. […] For example, UV radiation and aging are associated with the increased proteolytic activity in the skin. The stimulation of total protein production could counterbalance the loss of proteins caused by this increased proteolytic activity. Total protein was measured using the method of Skehan et al. (1990). […] The basic fibroblast growth factor, bFGF, was again used as a positive control.
substance,measurement,setting,value
"bFGF: basic fibroblast growth factor, positive control at 10 ng/ml",Mitochondrial Metabolism % Control,[1],174 % Control
same,Protein Stimulation % Control,[2],118 % Control
